Measurements as given in PMC11371747, “The role of l-leucovorin uptake and metabolism in the modulation of 5-fluorouracil efficacy and antifolate toxicity” (Frontiers in Pharmacology, 2024).
Where two headings read alike, the source gives them in different places.

Assays:
WiDr cells = assay: Growth inhibition, SRB assay, WiDr; format: cell-based; conditions: Homo sapiens, 72 h, read-out: IC50, 72 h drug exposure
Description: (§1) Briefly, cells were seeded in triplicate in 96-well plates at their pre-established optimal density (CHO cells: 2,500 cells/100 μL; WiDr and HT29: 3,500 cells/100 μL; WiDr-LF/LV, LS174T: 5,000 cells/100 μL; CaCo2, CaCo2-LF/LV, H292, H28 and MSTO-211H: 6,000 cells/100 μL; H460, SW948 and SW1398: 7,000 cells/100 μL) and were allowed to attach for ∼ 24 h at 37°C in 5% CO2 and 100% humidified incubator. Thereafter, 100 μL of drug dilution without LV, or with 5 μM l-LV/5 μM d-LV/10 μM dL-LV (or any LV alone) were added. Cells were allowed to grow for 72 h at 37°C in 5% CO2 and 100% humidity. The t = 0 h control plate consisted of cells plated on the same day as the other cells, but after 24 h at 37°C in 5% CO2 and 100% humidity, only 100 μL medium was added and the cells were fixed immediately with 50% trichloroacetic acid (TCA) in milliQ water (25 μL per well) and put at 4°C for at least 1 h. Plates were washed five times with water and dried. Cells were stained with the SRB protein dye (0.4% (w/v) in 1% acetic acid. Excess dye was washed away four times with 1% acetic acid and plates were dried again. 200 μL of Tris (10 mM Tris (hydroxymethyl)-aminomethane in MQ) was added and optical density (OD) was read at 492 nm after mixing 2–3 min on a plate shaker.

WiDr LF/LV cells = assay: Growth inhibition, SRB assay, WiDr LF/LV; format: cell-based, human; conditions: Homo sapiens, WiDr, 72 h, WiDr LF/LV, SRB, read-out: IC50, 72 h drug exposure
Description: as §1

CaCo2 cells = assay: Growth inhibition, SRB assay, CaCo2; format: cell-based; conditions: Homo sapiens, Caco-2, 72 h, read-out: IC50, 72 h drug exposure
Description: as §1

CaCo2 LF/LV cells = assay: Growth inhibition, SRB assay, CaCo2 LF/LV; format: cell-based; conditions: Homo sapiens, Caco-2, 72 h, read-out: IC50, 72 h drug exposure
Description: as §1

LS174T cells = assay: Growth inhibition, SRB assay, LS174T; format: cell-based; conditions: Homo sapiens, 72 h, read-out: IC50, 72 h drug exposure
Description: as §1

HT29 cells = assay: Growth inhibition, SRB assay, HT29; format: cell-based; conditions: Homo sapiens, HT-29, 72 h, read-out: IC50, 72 h drug exposure
Description: as §1

SW948 cells = assay: Growth inhibition, SRB assay, SW948; format: cell-based; conditions: Homo sapiens, SW948, 72 h, read-out: IC50, 72 h drug exposure
Description: as §1

SW1398 cells = assay: Growth inhibition, SRB assay, SW1398; format: cell-based; conditions: Homo sapiens, 72 h, read-out: IC50, 72 h drug exposure
Description: as §1

colon cancer cell lines = assay: Growth inhibition, SRB assay, panel of colon cancer cell lines; format: cell-based, human; conditions: Homo sapiens, read-out: IC50 range over colon cancer cell lines
Description: as §1

[1] = biological target: T1, thymidylate synthase (TS) (Homo sapiens, UniProt P04818); assay: TS in situ inhibition assay (TSIA) in colon cancer cells; format: cell-based
T1 construct: The principle of this assay is the measurement of TS enzymatic activity in intact cells; endogenous in cells; host or cells: colon cancer cell lines (WiDr, WiDr-LF, SW1398, LS174T and others)
T1 sequence (P04818 2-313 limits assumed): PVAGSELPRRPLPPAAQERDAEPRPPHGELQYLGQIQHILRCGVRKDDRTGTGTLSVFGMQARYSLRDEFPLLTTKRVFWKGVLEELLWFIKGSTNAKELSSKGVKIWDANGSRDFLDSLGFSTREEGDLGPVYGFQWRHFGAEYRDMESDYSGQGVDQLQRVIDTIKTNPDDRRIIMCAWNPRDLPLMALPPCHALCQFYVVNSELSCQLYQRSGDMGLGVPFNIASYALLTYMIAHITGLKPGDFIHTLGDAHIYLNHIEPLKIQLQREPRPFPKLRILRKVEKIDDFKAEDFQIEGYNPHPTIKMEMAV
From the text: The principle of this assay is the measurement of TS enzymatic activity in intact cells. Intact cells will readily internalize radioactively labelled [5-^3H]-deoxycytidine, which will be rapidly converted by deoxycytidine kinase (dCK) to [5-^3H]-dCMP and subsequently deaminated to [5-^3H]-dUMP, which will then serve as a substrate in the TS catalysed reaction to dTMP and ^3H2O; the quantity of ^3H2O formed over time is a measure of intracellular TS activity. […] This is because dCK has a higher, cell cycle independent activity than thymidine kinase 1, which is a cell cycle dependent enzyme. For this purpose, cancer cells were cultured in six wells plates at 2.5 × 10^5 cells/2 mL/well for 24 h. Thereafter, cells were exposed to drugs with or without the LV formulations at the indicated concentrations for 4 h. 2 h before the end of the incubation period [5-^3H]-2′-deoxycytidine (final concentration 1 µM) was added to the cells. […] In most cell lines we quantified dCK activity and dCK mRNA levels.

H28 cells = assay: Growth inhibition, SRB assay, H28 (MPM); format: cell-based, human; conditions: H28, SRB, read-out: IC50, 72 h drug exposure
Description: as §1

MSTO-211H cells = assay: Growth inhibition, SRB assay, MSTO-211H (MPM); format: cell-based, human; conditions: SRB, read-out: IC50, 72 h drug exposure
Description: as §1

H460 cells = assay: Growth inhibition, SRB assay, H460 (NSCLC); format: cell-based, human; conditions: H460, SRB, read-out: IC50, 72 h drug exposure
Description: as §1

H292 cells = assay: Growth inhibition, SRB assay, H292 (NSCLC); format: cell-based, human; conditions: H292, SRB, read-out: IC50, 72 h drug exposure
Description: as §1

NSCLC and MPM cell lines = assay: Growth inhibition, SRB assay, NSCLC and MPM cell lines; format: cell-based, human; conditions: 5 µM l-LV, H28, MSTO-211H, H460, H292
Description: as §1

CHO/C5 cells = assay: Growth inhibition, SRB assay, CHO/C5 (RFC-deficient); format: cell-based, Chinese hamster
Description: as §1

CHO/C5-MOCK cells = assay: Growth inhibition, SRB assay, CHO/C5-MOCK (empty vector); format: cell-based, Chinese hamster
Description: as §1

CHO/C5-PCFT cells = assay: Growth inhibition, SRB assay, CHO/C5-PCFT (PCFT-transfected); format: cell-based, Chinese hamster
Description: as §1

CHO/C5-hRFC cells = assay: Growth inhibition, SRB assay, CHO/C5-hRFC (human RFC transfected); format: cell-based, Chinese hamster; conditions: CHO/C5-hRFC
Description: as §1

AA8 cells = assay: Growth inhibition, SRB assay, AA8 (parental CHO); format: cell-based, Chinese hamster; conditions: for IC50: AA8 parental CHO
Description: as §1

[2] = Cricetulus griseus, antifolate alone

## O=c1[nH]cc(F)c(=O)[nH]1 [5-FU, 5-fluorouracil]
WiDr cells; 5-FU + 5 µM d-LV
  IC50: 4.21 ± 0.57 µM
WiDr cells; 5-FU + 5 µM l-LV
  IC50: 1.95 ± 0.2 µM
WiDr cells; 5-FU + 10 µM dl-LV
  IC50: 2.91 ± 1.06 µM
WiDr cells; 5-FU alone
  IC50: 4.56 ± 0.34 µM
WiDr LF/LV cells; 5-FU + 5 µM d-LV
  IC50: 2.78 ± 0.34 µM
WiDr LF/LV cells; 5-FU + 5 µM l-LV
  IC50: 1.77 ± 0.15 µM
WiDr LF/LV cells; 5-FU + 10 µM dl-LV
  IC50: 1.75 ± 0.08 µM
WiDr LF/LV cells; 5-FU alone
  IC50: 1.83 ± 0.18 µM
CaCo2 cells; 5-FU + 5 µM d-LV
  IC50: 3.04 ± 0.66 µM
CaCo2 cells; 5-FU + 5 µM l-LV
  IC50: 3.04 ± 0.39 µM
CaCo2 cells; 5-FU + 10 µM dl-LV
  IC50: 3.63 ± 0.38 µM
CaCo2 cells; 5-FU alone
  IC50: 3.08 ± 0.27 µM
CaCo2 LF/LV cells; 5-FU + 5 µM d-LV
  IC50: 1.96 ± 0.62 µM
CaCo2 LF/LV cells; 5-FU + 5 µM l-LV
  IC50: 1.78 ± 0.18 µM
CaCo2 LF/LV cells; 5-FU + 10 µM dl-LV
  IC50: 1.78 ± 0.39 µM
CaCo2 LF/LV cells; 5-FU alone
  IC50: 2.05 ± 0.28 µM
LS174T cells; 5-FU + 5 µM d-LV
  IC50: 10.5 ± 0.8 µM
LS174T cells; 5-FU + 5 µM l-LV
  IC50: 8.11 ± 0.71 µM
LS174T cells; 5-FU + 10 µM dl-LV
  IC50: 8.95 ± 0.72 µM
LS174T cells; 5-FU alone
  IC50: 10.5 ± 0.82 µM
HT29 cells; 5-FU + 5 µM d-LV
  IC50: 7.5 ± 0.5 µM
HT29 cells; 5-FU + 5 µM l-LV
  IC50: 3.3 ± 0.2 µM
HT29 cells; 5-FU + 10 µM dl-LV
  IC50: 3.8 ± 0.3 µM
HT29 cells; 5-FU alone
  IC50: 7.9 ± 2.65 µM
SW948 cells; 5-FU + 5 µM d-LV
  IC50: 3.85 ± 0.66 µM
SW948 cells; 5-FU + 5 µM l-LV
  IC50: 2.63 ± 0.4 µM
SW948 cells; 5-FU + 10 µM dl-LV
  IC50: 2.78 ± 0.29 µM
SW948 cells; 5-FU alone
  IC50: 3.65 ± 0.41 µM
SW1398 cells; 5-FU + 5 µM d-LV
  IC50: 2.4 ± 0.68 µM
SW1398 cells; 5-FU + 5 µM l-LV
  IC50: 1.28 ± 0.18 µM
SW1398 cells; 5-FU + 10 µM dl-LV
  IC50: 1.44 ± 0.37 µM
SW1398 cells; 5-FU alone
  IC50: 2.99 ± 0.47 µM
Colon cancer cell lines; 5-FU + 5 µM d-LV
  IC50: 2 to 10.5 µM
Colon cancer cell lines; 5-FU + 5 µM l-LV
  IC50: 1.3 to 8.1 µM
Colon cancer cell lines; 5-FU + 10 µM dl-LV
  IC50: 1.4 to 8.9 µM
Colon cancer cell lines; 5-FU only
  IC50: 1.8 to 10.5 µM
[1]; SW1398, 4 h, 5FU alone
  IC50: 4.14 ± 0.24 µM
[1]; WiDr, 4 h, 5FU alone
  IC50: 3.76 ± 0.35 µM
[1]; WiDr-LF, 4 h, 5FU alone
  IC50: 3.67 ± 0.33 µM

## Nc1nc2[nH]cc(CCc3ccc(C(=O)N[C@@H](CCC(=O)O)C(=O)O)cc3)c2c(=O)[nH]1 [PMX, pemetrexed]
H28 cells; antifolate + 5 µM l-LV
  IC50: 34.3 µM
H28 cells; Homo sapiens, NCI-H28, 72 h, antifolate alone
  IC50: 0.28 ± 0.048 µM
MSTO-211H cells; Homo sapiens, 72 h, antifolate alone
  IC50: 0.143 ± 0.014 µM
MSTO-211H cells; antifolate + 5 µM l-LV
  IC50: 21 µM
H460 cells; antifolate + 5 µM l-LV
  IC50: 52.7 µM
H460 cells; Homo sapiens, NCI-H460, 72 h, antifolate alone
  IC50: 0.302 ± 0.012 µM
H292 cells; antifolate + 5 µM l-LV
  IC50: 17 µM
H292 cells; Homo sapiens, NCI-H292, 72 h, antifolate alone
  IC50: 0.103 ± 0.012 µM
NSCLC and MPM cell lines
  l-LV-mediated increase in the IC50 values, range over cell lines: 144-211 fold
CHO/C5 cells; [2]
  IC50: 3.1 µM
CHO/C5 cells; antifolate + 5 µM l-LV
  IC50: 59.6 µM
CHO/C5-MOCK cells; [2]
  IC50: 42 µM
CHO/C5-MOCK cells; antifolate + 5 µM l-LV
  IC50: > 100 µM
CHO/C5-PCFT cells; [2]
  IC50: 10.6 µM
CHO/C5-PCFT cells; antifolate + 5 µM l-LV
  IC50: 49.2 µM
CHO/C5-hRFC cells; antifolate + 5 µM l-LV
  IC50: 29.3 µM
CHO/C5-hRFC cells; [2]
  IC50: 0.046 µM
AA8 cells; AA8 cells, 5 µM l-LV
  Protection by l-LV, increase of the IC50 value: 94 fold
AA8 cells; antifolate + 5 µM l-LV
  IC50: 3.5 µM
AA8 cells; [2]
  IC50: 0.037 µM
[1]; WiDr, 4 h, antifolate alone
  IC50: 0.175 ± 0.075 µM
